ChEMBL document CHEMBL1201862, “PubChem BioAssay data set” (2004)
One block for each compound: values may come before it. Active and inactive are the calls of the source.

Key:
HeLa = assay: HeLa cell cytotoxicity, dose response, cytotoxicity control for MITF activator project, CellTiter-Glo luminescence, cherry-pick samples (AID 540259); format: functional, cell-based; conditions: Homo sapiens
Trypsin = Trypsin (Sus scrofa, UniProt P00761); assay: porcine trypsin inhibitors, dose response, selectivity assay for Rce1 protease inhibitor project, biochemical, quenched peptide fluorescence, cherry-pick (AID 488789)
CAAX prenyl protease 2 [1] = molecular target: T1, CAAX prenyl protease 2 (Saccharomyces cerevisiae S288c, UniProt Q03530); format: biochemical
T1 sequence (Q03530 whole entry): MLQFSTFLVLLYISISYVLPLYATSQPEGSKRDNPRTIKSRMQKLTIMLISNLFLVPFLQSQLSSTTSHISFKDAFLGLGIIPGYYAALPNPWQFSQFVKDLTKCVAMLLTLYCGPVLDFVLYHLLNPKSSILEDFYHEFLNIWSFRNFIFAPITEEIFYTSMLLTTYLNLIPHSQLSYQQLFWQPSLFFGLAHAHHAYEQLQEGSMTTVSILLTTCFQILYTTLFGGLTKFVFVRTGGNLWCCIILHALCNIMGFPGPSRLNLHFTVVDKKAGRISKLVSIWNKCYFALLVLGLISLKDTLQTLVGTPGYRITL

CAAX prenyl protease 2 [2] = molecular target: CAAX prenyl protease 2 (Homo sapiens, UniProt Q9Y256); assay: human Rce1 protease inhibitors, dose response, biochemical, yeast membranes, quenched-peptide fluorescence, cherry-pick (AID 588849)
Caspase-6 = molecular target: T2, Caspase-6 (Homo sapiens, UniProt P55212); assay: human caspase-6 inhibitors, dose response, biochemical, VEID-R110 fluorescence, cherry-pick (AID 720632)
T2 sequence (P55212 whole entry): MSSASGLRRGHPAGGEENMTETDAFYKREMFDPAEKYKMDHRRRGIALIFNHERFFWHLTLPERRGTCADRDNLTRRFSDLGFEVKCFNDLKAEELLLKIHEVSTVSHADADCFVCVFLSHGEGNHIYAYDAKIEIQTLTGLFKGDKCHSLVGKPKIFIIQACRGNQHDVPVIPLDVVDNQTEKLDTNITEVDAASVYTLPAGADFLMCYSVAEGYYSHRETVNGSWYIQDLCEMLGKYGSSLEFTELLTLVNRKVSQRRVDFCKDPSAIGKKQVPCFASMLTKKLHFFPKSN

[3] = molecular target: Benomyl/methotrexate resistance protein (Candida albicans, UniProt P28873); assay: CaMdr1 efflux pump inhibitor potency, dose response, singleplex, Cherry Pick1 hits (AID 588608); format: functional
[4] = molecular target: Voltage-dependent T-type calcium channel subunit alpha-1H (Homo sapiens, UniProt O95180); format: functional;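 also: channel activity triggered by adding a high calcium stimulation buffer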
[5] = molecular target: Potassium voltage-gated channel subfamily KQT member 2 (Rattus norvegicus, UniProt O88943); assay: KCNQ2 potassium channel inhibitors, dose response, cell-based, automated electrophysiology, set II, rat KCNQ2 (AID 588637); format: functional
[6] = molecular target: T3, High affinity choline transporter 1 (Homo sapiens, UniProt Q9GZV3); assay: CHT activators, dose response, cell-based, 10-point CRC, membrane potential dye (AID 602376); format: functional
T3 sequence (Q9GZV3 whole entry): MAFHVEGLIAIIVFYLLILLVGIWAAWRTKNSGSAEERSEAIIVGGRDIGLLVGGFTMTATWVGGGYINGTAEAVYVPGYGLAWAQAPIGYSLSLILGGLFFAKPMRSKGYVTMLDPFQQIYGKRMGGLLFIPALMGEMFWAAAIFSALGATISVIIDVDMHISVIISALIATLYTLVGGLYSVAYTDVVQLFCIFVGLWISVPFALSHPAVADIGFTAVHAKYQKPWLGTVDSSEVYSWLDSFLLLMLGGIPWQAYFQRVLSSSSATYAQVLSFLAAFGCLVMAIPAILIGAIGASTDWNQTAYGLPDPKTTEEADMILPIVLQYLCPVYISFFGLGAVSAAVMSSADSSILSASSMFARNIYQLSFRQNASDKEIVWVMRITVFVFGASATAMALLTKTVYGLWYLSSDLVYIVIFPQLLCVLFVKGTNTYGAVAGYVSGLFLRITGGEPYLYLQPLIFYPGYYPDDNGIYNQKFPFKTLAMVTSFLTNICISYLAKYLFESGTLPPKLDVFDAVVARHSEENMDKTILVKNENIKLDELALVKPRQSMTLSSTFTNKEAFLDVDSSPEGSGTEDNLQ

[7] = molecular target: Beta-2 adrenergic receptor (Homo sapiens, UniProt P07550); assay: beta2AR agonists driving receptor internalization, dose response, cell-based, FAP fluorogen, flow cytometry, cherry pick 1 (AID 588763); format: functional
[8] = molecular target: 26S proteasome non-ATPase regulatory subunit 14 (Homo sapiens, UniProt O00487); assay: inhibition of proteasome subunit RPN11 – biochemical, fluorescence polarization, uHTS hits, confirmation (AID 602368); format: functional
[9] = molecular target: 72 kDa type IV collagenase (Homo sapiens, UniProt P08253); assay: Dose Response validation of uHTS RPN11 inhibitor hits using a MMP-2 Fluorescence assay.; format: functional
Prothrombin = Prothrombin (Bos taurus, UniProt P00735); assay: thrombin inhibition, dose response, biochemical, fluorescence polarization, uHTS hits (AID 602369); format: functional
[10] = molecular target: G-protein coupled receptor 55 (Homo sapiens, UniProt Q9Y2T6); assay: GPR55 agonists via beta-arrestin recruitment, primary screen, imaging, U2OS cells, beta-arrestin-GFP redistribution (AID 1961); format: functional
[11] = molecular target: Apoptotic protease-activating factor 1 (Homo sapiens, UniProt O14727); assay: SAR analysis of small molecule Activators of Apaf-1 in a Fluorescent assay.; format: functional; conditions: read-out: EC50_Mean;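 also: caspase-3 cleavage of fluorogenic Rh110 DEVD substrate downstream of apoptosome activation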
Caspase-3 [12] = molecular target: T4, Caspase-3 (Homo sapiens, UniProt P42574); format: functional
T4 sequence (P42574 whole entry): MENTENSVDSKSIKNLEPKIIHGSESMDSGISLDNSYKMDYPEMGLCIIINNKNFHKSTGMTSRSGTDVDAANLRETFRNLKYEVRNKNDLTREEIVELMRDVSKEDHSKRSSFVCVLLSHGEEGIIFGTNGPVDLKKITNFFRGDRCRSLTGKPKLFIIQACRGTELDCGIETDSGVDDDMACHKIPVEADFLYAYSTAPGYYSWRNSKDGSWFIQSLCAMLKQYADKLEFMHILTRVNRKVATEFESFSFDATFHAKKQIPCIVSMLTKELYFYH

[13] = molecular target: T5, Sentrin-specific protease 7 (Homo sapiens, UniProt Q9BQF6); format: functional;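 also: Luminescence-based dose-response confirmation of ultra-high-throughput screening hits, measuring inhibition of SENP7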
T5 sequence (Q9BQF6 whole entry): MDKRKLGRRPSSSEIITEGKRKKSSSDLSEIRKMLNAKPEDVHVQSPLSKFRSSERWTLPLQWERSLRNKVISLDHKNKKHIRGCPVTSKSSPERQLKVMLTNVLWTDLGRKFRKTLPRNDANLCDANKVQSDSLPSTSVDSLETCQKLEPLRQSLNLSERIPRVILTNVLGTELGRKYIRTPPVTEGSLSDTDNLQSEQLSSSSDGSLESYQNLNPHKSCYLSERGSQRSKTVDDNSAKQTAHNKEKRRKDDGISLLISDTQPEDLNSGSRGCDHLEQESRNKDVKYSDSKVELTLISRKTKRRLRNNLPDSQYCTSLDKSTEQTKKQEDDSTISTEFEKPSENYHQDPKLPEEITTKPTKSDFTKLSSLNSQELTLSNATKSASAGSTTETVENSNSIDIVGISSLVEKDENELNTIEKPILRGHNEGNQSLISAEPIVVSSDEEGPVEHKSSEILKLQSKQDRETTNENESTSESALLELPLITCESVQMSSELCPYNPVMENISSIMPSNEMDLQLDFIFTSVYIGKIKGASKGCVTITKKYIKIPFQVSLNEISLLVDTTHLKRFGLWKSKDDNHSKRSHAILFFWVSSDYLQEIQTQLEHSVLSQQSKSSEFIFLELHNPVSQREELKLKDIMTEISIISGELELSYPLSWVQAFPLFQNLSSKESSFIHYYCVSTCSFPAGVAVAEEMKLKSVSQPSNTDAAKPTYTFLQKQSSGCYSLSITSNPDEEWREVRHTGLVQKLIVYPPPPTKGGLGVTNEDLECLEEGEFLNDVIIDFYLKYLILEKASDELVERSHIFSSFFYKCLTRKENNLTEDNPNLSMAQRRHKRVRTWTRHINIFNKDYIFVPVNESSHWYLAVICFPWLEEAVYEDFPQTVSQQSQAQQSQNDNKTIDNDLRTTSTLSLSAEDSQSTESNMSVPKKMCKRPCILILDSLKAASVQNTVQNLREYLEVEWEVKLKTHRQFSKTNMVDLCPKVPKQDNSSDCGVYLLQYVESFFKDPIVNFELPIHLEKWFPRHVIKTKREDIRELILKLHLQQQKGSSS

[14] = molecular target: T6, Sentrin-specific protease 6 (Homo sapiens, UniProt Q9GZR1); format: functional
T6 sequence (Q9GZR1 whole entry): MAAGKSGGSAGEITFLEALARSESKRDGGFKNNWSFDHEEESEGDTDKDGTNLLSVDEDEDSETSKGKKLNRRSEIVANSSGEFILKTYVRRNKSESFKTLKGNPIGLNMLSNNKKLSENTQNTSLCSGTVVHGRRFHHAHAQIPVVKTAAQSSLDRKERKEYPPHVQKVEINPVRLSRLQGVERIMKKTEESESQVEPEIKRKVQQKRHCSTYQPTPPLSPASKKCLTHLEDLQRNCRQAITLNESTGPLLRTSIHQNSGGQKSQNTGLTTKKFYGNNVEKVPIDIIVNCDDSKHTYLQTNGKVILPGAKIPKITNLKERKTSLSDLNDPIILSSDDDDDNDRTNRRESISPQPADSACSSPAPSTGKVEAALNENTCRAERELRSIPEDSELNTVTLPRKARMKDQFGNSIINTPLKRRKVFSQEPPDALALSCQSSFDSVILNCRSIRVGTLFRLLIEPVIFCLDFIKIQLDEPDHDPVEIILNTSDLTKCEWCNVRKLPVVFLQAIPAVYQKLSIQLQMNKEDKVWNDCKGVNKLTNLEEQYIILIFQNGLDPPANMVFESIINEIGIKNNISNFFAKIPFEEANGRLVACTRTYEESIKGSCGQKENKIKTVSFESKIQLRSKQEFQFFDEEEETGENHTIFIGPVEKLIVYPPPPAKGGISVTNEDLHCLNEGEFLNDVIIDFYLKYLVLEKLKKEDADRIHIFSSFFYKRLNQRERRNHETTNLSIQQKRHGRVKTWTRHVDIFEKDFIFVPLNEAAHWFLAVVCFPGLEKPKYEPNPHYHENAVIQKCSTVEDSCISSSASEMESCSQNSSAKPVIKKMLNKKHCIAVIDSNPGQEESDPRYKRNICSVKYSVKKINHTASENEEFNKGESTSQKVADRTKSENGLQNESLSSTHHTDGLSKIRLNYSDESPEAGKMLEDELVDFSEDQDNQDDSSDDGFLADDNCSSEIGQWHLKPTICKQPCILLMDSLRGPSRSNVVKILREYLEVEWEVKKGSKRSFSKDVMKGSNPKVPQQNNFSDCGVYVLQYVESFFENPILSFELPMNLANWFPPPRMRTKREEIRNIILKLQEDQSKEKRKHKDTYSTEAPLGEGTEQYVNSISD

[15] = molecular target: T7, Sentrin-specific protease 8 (Homo sapiens, UniProt Q96LD8); format: functional;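 also: luminescence read-out of SENP8 inhibition, dose-response confirmation following an ultra-high-throughput screen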
T7 sequence (Q96LD8 whole entry): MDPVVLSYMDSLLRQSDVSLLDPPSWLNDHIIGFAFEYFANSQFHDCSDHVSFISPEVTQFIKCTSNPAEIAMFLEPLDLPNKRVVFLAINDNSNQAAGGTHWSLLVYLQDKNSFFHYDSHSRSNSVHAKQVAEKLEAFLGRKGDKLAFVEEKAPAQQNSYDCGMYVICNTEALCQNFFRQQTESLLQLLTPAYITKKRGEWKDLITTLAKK

[16] = molecular target: T7, Sentrin-specific protease 8; assay: SENP8 protease inhibitors, SAR follow-up, biochemical, luminescence (AID 504501); format: functional
Caspase-3 [17] = molecular target: T4, Caspase-3; assay: SAR Analysis of small molecule inhibitors of Sentrin-specific proteases (SENPs) using a Caspase-3 Selectivity assay. [Related pubchem assays (depositor defined):AID2540, AID2599, AID434973, AID489001]; format: functional
[18] = molecular target: T6, Sentrin-specific protease 6; assay: SAR Analysis of small molecule inhibitors of Sentrin-specific protease 6 (SENP6) using a Luminescent assay. [Related pubchem assays (depositor defined):AID2582, AID2599]; format: functional
[19] = molecular target: T5, Sentrin-specific protease 7; assay: SENP7 protease inhibitors, SAR follow-up, biochemical, luminescence (AID 504497); format: functional

Voltage-dependent T-type calcium channel subunit alpha-1H, sequence (O95180 whole entry): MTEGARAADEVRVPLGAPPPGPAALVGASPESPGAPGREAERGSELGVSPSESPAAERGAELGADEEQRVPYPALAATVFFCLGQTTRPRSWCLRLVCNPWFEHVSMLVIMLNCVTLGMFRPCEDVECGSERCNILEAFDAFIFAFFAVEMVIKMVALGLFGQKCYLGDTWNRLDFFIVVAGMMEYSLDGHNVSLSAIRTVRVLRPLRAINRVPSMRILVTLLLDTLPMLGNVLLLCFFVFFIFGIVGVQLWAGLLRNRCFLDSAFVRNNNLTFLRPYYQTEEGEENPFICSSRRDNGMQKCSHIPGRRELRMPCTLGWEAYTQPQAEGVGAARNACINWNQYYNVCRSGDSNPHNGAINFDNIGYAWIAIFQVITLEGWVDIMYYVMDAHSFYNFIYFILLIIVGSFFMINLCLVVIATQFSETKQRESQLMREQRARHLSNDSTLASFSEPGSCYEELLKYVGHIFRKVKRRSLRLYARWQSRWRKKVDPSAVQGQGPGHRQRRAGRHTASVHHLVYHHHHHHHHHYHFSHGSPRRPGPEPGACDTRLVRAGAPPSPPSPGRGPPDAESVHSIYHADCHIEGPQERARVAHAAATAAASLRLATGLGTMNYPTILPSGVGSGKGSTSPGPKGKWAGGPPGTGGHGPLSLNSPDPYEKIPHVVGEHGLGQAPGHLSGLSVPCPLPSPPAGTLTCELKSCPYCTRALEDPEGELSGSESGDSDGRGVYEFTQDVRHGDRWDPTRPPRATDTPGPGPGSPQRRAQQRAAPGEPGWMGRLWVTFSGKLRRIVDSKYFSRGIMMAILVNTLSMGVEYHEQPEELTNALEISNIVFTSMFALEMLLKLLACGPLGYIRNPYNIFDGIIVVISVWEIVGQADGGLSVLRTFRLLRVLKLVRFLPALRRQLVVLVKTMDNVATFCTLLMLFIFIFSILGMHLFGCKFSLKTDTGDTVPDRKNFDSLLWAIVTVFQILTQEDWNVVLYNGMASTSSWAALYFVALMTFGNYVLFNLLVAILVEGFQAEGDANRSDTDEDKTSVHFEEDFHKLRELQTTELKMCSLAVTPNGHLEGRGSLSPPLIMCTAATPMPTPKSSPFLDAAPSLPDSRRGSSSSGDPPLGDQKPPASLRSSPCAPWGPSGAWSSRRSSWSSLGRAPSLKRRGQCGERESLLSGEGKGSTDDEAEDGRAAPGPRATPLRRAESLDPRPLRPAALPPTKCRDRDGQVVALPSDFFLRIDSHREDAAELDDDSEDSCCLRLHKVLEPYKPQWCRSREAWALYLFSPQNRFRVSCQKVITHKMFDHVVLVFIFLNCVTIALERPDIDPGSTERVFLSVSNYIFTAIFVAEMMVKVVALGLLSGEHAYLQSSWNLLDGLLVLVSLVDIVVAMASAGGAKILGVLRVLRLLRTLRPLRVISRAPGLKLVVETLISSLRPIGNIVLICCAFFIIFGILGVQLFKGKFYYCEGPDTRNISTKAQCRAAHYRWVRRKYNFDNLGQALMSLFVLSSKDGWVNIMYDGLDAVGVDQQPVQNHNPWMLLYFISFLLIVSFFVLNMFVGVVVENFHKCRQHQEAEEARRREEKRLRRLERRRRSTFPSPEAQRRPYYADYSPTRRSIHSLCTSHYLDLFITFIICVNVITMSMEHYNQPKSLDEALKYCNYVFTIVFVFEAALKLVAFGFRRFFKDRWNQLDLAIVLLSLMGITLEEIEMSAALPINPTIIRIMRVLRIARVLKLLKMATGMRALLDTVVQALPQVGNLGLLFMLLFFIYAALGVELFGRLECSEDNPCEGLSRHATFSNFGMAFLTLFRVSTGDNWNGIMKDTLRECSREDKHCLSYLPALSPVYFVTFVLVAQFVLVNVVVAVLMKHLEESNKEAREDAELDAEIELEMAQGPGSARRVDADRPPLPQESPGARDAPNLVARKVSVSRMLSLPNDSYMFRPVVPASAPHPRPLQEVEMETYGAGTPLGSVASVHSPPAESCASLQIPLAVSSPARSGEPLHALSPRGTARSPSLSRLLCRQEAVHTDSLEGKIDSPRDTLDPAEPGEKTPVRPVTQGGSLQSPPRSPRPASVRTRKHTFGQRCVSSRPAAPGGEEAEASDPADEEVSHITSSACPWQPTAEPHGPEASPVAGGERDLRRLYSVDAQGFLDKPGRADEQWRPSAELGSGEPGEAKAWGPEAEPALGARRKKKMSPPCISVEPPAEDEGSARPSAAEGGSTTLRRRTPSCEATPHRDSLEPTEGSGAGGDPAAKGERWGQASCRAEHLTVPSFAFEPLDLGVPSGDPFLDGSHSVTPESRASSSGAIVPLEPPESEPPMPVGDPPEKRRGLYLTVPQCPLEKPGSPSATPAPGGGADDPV
CAAX prenyl protease 2 (Homo sapiens, UniProt Q9Y256), sequence (Q9Y256 whole entry): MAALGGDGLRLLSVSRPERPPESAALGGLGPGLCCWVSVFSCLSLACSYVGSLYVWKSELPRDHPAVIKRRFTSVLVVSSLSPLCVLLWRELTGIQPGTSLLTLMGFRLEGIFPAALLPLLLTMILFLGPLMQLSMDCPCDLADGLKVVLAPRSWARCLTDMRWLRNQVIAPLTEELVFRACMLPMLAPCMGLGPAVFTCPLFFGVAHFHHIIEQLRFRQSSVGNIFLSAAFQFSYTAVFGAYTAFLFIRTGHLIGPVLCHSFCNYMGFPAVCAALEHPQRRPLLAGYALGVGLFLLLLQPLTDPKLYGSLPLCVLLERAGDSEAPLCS
Benomyl/methotrexate resistance protein, sequence (P28873 whole entry): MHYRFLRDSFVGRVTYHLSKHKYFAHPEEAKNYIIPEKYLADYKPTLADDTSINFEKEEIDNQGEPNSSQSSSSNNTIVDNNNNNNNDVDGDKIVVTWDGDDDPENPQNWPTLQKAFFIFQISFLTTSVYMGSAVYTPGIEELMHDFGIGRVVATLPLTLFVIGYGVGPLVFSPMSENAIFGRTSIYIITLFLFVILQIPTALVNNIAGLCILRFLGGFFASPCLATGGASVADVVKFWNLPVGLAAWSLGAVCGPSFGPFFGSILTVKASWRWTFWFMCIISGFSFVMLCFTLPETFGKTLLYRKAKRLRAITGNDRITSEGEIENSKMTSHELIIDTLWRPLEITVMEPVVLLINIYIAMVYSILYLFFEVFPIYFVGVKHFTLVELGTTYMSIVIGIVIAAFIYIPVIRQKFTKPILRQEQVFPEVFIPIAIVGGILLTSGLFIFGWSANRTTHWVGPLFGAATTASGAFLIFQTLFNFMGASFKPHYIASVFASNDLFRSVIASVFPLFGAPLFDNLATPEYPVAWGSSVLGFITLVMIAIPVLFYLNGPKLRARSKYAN
Potassium voltage-gated channel subfamily KQT member 2, sequence (O88943 whole entry): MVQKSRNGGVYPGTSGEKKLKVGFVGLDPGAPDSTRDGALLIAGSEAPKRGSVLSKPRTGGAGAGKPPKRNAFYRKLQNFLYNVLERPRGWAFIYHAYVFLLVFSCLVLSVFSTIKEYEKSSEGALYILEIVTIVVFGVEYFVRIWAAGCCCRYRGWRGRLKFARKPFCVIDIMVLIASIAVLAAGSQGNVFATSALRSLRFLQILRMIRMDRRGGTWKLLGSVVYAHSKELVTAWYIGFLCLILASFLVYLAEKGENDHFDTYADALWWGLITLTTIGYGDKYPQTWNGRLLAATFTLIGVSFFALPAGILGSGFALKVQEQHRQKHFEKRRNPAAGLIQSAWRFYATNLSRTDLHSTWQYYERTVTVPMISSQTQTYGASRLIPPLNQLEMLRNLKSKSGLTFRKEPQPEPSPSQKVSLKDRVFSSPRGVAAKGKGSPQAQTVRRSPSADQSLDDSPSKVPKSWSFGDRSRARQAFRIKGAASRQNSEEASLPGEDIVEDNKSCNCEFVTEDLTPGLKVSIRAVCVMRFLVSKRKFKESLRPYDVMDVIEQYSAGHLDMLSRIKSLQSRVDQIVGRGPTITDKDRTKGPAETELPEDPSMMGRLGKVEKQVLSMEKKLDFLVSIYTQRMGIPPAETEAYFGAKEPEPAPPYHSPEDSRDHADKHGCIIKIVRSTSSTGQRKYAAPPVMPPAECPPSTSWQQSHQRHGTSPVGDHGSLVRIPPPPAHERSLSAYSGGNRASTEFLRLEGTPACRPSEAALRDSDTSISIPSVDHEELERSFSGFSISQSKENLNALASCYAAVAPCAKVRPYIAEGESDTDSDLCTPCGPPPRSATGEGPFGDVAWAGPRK
72 kDa type IV collagenase, sequence (P08253 whole entry): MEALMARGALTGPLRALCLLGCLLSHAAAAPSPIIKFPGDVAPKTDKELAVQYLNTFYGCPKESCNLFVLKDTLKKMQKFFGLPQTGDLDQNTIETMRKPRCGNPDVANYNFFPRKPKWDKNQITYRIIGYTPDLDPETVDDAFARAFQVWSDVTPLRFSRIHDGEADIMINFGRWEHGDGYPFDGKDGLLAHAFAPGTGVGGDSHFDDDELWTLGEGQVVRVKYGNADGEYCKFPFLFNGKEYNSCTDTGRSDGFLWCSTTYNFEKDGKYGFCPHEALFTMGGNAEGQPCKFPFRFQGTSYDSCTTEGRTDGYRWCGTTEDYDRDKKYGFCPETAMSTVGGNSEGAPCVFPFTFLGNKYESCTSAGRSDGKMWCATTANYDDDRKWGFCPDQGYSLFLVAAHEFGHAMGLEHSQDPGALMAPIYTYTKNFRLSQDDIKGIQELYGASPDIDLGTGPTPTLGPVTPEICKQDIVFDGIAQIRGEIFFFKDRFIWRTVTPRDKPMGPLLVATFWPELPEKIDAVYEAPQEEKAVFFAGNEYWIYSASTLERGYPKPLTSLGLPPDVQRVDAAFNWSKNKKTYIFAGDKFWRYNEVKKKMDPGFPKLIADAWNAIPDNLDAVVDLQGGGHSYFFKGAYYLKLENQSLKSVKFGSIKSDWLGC
Trypsin, sequence (P00761 whole entry): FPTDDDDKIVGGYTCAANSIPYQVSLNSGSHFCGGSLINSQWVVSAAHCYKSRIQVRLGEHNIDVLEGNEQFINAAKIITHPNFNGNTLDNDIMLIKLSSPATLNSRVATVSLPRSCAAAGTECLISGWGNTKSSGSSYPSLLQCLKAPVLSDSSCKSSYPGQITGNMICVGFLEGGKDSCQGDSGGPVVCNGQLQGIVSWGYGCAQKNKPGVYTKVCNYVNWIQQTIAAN

Structure (SMILES): CC1(C)CNC(=O)c2sc(NC(=O)c3ccccc3)nc2C1
- AC50 (HeLa): 55 µM (active)

Structure (SMILES): Nc1ccc(Cc2ccc(N)c(C(=O)O)c2)cc1C(=O)O
- AC50 (Trypsin): 7.3 µM (active)
- AC50 (CAAX prenyl protease 2 [1]): 32.3 µM (active)
- AC50 (CAAX prenyl protease 2 [2]): 2.25 µM (active)
- AC50 (Caspase-6): 37.8 µM (active)

Structure (SMILES): COc1ccc(C2CC(c3ccccc3C(F)(F)F)=NN2c2ccc(S(N)(=O)=O)cc2)cc1 (stereo unspecified)
- EC50 [3]: 22.6 µM (active)

Structure (SMILES): Fc1ccc(C(c2nnnn2C2CCCC2)N(Cc2ccco2)CC2CCCO2)cc1 (stereo unspecified)
- EC50 [4]: 3.83 µM (active)
- EC50 [6]: 14.5 µM (active)

Structure (SMILES): Cc1ccc(OCc2cc(C(=O)NCc3ccc(OC(F)(F)F)cc3)no2)cn1
- EC50 [7]: 792 nM (active)

Structure (SMILES): CCc1ccc(Nc2n[n+](-c3ccccc3)c(-c3ccc(SC)cc3)s2)cc1
- EC50 [10]: 23.1 µM (inactive)
- EC50 [6]: 10.2 µM (active)

Structure (SMILES): C/C(=N/OC(=O)CC(C)C)c1cc(-c2ccc(Cl)cc2)no1
- AC50 (HeLa): 58.7 µM (active)

Structure (SMILES): Cc1ccc(NC(=O)C(=O)c2c[nH]c3ccccc23)cc1
- IC50 (Caspase-3 [12]): 18.6 µM (active)
- IC50 [13]: 2.41 µM (active)
- IC50 [14]: > 100 µM (inactive)
- IC50 [15]: > 100 µM (inactive)
- IC50 [16]: > 99 µM (inactive)
- IC50 (Caspase-3 [17]): 9.05 µM (active)
- IC50 [18]: > 99 µM (inactive)
- IC50 [19]: 2.33 µM (active)

Now from value to compound:

- EC50 [4]: 3.95 µM (active)
- IC50 [5]: 1.76 µM (active)
Structure (SMILES): COc1ccc(-c2nc(CSCC(=O)NC3CCCc4ccccc43)c(C)o2)cc1 (stereo unspecified)

- IC50 [8]: 14.1 µM (active)
- IC50 [9]: > 100 µM (inactive)
- IC50 (Prothrombin): 26.8 µM (active)
Structure (SMILES): CC1CCN(c2ccc3c(c2)S(=O)(=O)c2cccc(C(=O)NC4CCCCC4)c2C3=O)CC1

- EC50 [11]: > 100 µM (inactive)
Structure (SMILES): O=C(Nc1cccc(O)c1)C1CC(c2ccc(F)cc2)=NO1 (stereo unspecified)
